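Five concentrations, 48 hours, 96-well plates. At the GI50, growth is halved. TGI marks complete inhibition of growth.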
Key:
Assay in all cases: growth of human tumour cells (NCI), 48 h
SK-MEL-28 melanoma = tested on: SK-MEL-28 melanoma
SF-295 CNS = tested on: SF-295 CNS
K-562 leukemia = tested on: K-562 leukemia
CAKI-1 renal = tested on: CAKI-1 renal
HCT-116 colon = tested on: HCT-116 colon
ACHN renal = tested on: ACHN renal
NCI-H23 lung = tested on: NCI-H23 lung
BT-549 breast = tested on: BT-549 breast
HT29 colon = tested on: HT29 colon
HOP-92 NSCLC = tested on: HOP-92 NSCLC
COLO 205 colon = tested on: COLO 205 colon
SK-MEL-2 melanoma = tested on: SK-MEL-2 melanoma
UACC-257 melanoma = tested on: UACC-257 melanoma
EKVX NSCLC = tested on: EKVX NSCLC
U251 CNS = tested on: U251 CNS
MCF7 breast = tested on: MCF7 breast
DU-145 prostate = tested on: DU-145 prostate
HS 578T breast = tested on: HS 578T breast
T-47D breast = tested on: T-47D breast
M14 melanoma = tested on: M14 melanoma
RXF 393 renal = tested on: RXF 393 renal
SF-539 CNS = tested on: SF-539 CNS
SK-MEL-5 melanoma = tested on: SK-MEL-5 melanoma
HCC-2998 colon = tested on: HCC-2998 colon
TK-10 renal = tested on: TK-10 renal
CCRF-CEM leukemia = tested on: CCRF-CEM leukemia
SF-268 CNS = tested on: SF-268 CNS
NCI-H522 lung = tested on: NCI-H522 lung
SW-620 colon = tested on: SW-620 colon
MDA-MB-435 = tested on: MDA-MB-435
A549 NSCLC = tested on: A549 NSCLC
HL-60(TB) leukemia = tested on: HL-60(TB) leukemia
MALME-3M melanoma = tested on: MALME-3M melanoma
UACC-62 melanoma = tested on: UACC-62 melanoma
SNB-19 CNS = tested on: SNB-19 CNS
MDA-MB-231 breast = tested on: MDA-MB-231 breast
UO-31 renal = tested on: UO-31 renal
OVCAR-4 ovarian = tested on: OVCAR-4 ovarian
NCI-H460 lung = tested on: NCI-H460 lung
RPMI-8226 leukemia = tested on: RPMI-8226 leukemia
786-0 renal = tested on: 786-0 renal
SK-OV-3 ovarian = tested on: SK-OV-3 ovarian
PC-3 prostate = tested on: PC-3 prostate
LOX IMVI melanoma = tested on: LOX IMVI melanoma
OVCAR-5 ovarian = tested on: OVCAR-5 ovarian
HCT-15 colon = tested on: HCT-15 colon
SR leukemia = tested on: SR leukemia
MOLT-4 leukemia = tested on: MOLT-4 leukemia
NCI/ADR-RES ovarian = tested on: NCI/ADR-RES ovarian
SNB-75 CNS = tested on: SNB-75 CNS
IGROV1 ovarian = tested on: IGROV1 ovarian
NCI-H226 lung = tested on: NCI-H226 lung
HOP-62 NSCLC = tested on: HOP-62 NSCLC
OVCAR-3 ovarian = tested on: OVCAR-3 ovarian
OVCAR-8 ovarian = tested on: OVCAR-8 ovarian
SN12C renal = tested on: SN12C renal
A498 renal = tested on: A498 renal
KM12 colon = tested on: KM12 colon

Cc1oc2c(C(=O)N/N=C\c3ccc(O)cc3O)c[nH]c2c1C
GI50 (SK-MEL-28 melanoma): 2.12 µM
TGI (SK-MEL-28 melanoma): > 41.7 µM
GI50 (SF-295 CNS): 0.435 µM
TGI (SF-295 CNS): 29.6 µM
GI50 (K-562 leukemia): 1.14 µM
TGI (K-562 leukemia): > 100 µM
GI50 (CAKI-1 renal): 0.739 µM
TGI (CAKI-1 renal): 26.7 µM
GI50 (HCT-116 colon): 0.424 µM
TGI (HCT-116 colon): 32.5 µM
GI50 (ACHN renal): 0.339 µM
TGI (ACHN renal): 13.7 µM
GI50 (NCI-H23 lung): 1.49 µM
TGI (NCI-H23 lung): 24.3 µM
GI50 (BT-549 breast): 2.05 µM
TGI (BT-549 breast): > 54.6 µM
GI50 (HT29 colon): 2.85 µM
TGI (HT29 colon): > 48.2 µM
GI50 (HOP-92 NSCLC): 0.541 µM
TGI (HOP-92 NSCLC): 9.21 µM
GI50 (COLO 205 colon): 0.29 µM
GI50 (SK-MEL-2 melanoma): 10.4 µM
TGI (SK-MEL-2 melanoma): > 100 µM
GI50 (UACC-257 melanoma): 0.644 µM
TGI (UACC-257 melanoma): 3.08 µM
GI50 (EKVX NSCLC): 0.46 µM
TGI (EKVX NSCLC): > 54.2 µM
GI50 (U251 CNS): 0.57 µM
TGI (U251 CNS): 15.4 µM
GI50 (MCF7 breast): 0.521 µM
TGI (MCF7 breast): > 33.6 µM
GI50 (DU-145 prostate): 1.32 µM
TGI (DU-145 prostate): > 41.1 µM
GI50 (HS 578T breast): 6.71 µM
TGI (HS 578T breast): > 60.7 µM
GI50 (T-47D breast): 1.79 µM
TGI (T-47D breast): > 43.2 µM
GI50 (M14 melanoma): 0.756 µM
TGI (M14 melanoma): 17.3 µM
GI50 (RXF 393 renal): 0.58 µM
TGI (RXF 393 renal): 16.7 µM
GI50 (SF-539 CNS): 0.84 µM
TGI (SF-539 CNS): 12.5 µM
GI50 (SK-MEL-5 melanoma): 1.02 µM
TGI (SK-MEL-5 melanoma): 15.7 µM
GI50 (HCC-2998 colon): 0.876 µM
TGI (HCC-2998 colon): > 50.6 µM
GI50 (TK-10 renal): 1.03 µM
TGI (TK-10 renal): > 64.8 µM
GI50 (CCRF-CEM leukemia): 0.19 µM
TGI (CCRF-CEM leukemia): > 100 µM
GI50 (SF-268 CNS): 0.662 µM
TGI (SF-268 CNS): > 44.4 µM
GI50 (NCI-H522 lung): 0.704 µM
TGI (NCI-H522 lung): 63.9 µM
GI50 (SW-620 colon): 0.801 µM
TGI (SW-620 colon): > 37 µM
GI50 (MDA-MB-435): 4.52 µM
TGI (MDA-MB-435): > 100 µM
GI50 (A549 NSCLC): 0.518 µM
TGI (A549 NSCLC): 13.2 µM
GI50 (HL-60(TB) leukemia): 0.337 µM
GI50 (MALME-3M melanoma): 2.23 µM
TGI (MALME-3M melanoma): 25.3 µM
GI50 (UACC-62 melanoma): 0.665 µM
TGI (UACC-62 melanoma): 8.32 µM
GI50 (SNB-19 CNS): 1.32 µM
TGI (SNB-19 CNS): > 42 µM
GI50 (MDA-MB-231 breast): 8.13 µM
TGI (MDA-MB-231 breast): > 45.9 µM
GI50 (UO-31 renal): 0.208 µM
TGI (UO-31 renal): 13.9 µM
GI50 (OVCAR-4 ovarian): 0.414 µM
TGI (OVCAR-4 ovarian): > 47.1 µM
GI50 (NCI-H460 lung): 0.347 µM
TGI (NCI-H460 lung): 7.28 µM
GI50 (RPMI-8226 leukemia): 0.445 µM
TGI (RPMI-8226 leukemia): 17.4 µM
GI50 (786-0 renal): 0.464 µM
TGI (786-0 renal): 7.49 µM
GI50 (SK-OV-3 ovarian): 0.68 µM
TGI (SK-OV-3 ovarian): 17.4 µM
GI50 (PC-3 prostate): 0.579 µM
TGI (PC-3 prostate): > 45.6 µM
GI50 (LOX IMVI melanoma): 0.409 µM
TGI (LOX IMVI melanoma): 10.6 µM
GI50 (OVCAR-5 ovarian): 3.89 µM
TGI (OVCAR-5 ovarian): > 45.2 µM
GI50 (HCT-15 colon): 0.175 µM
TGI (HCT-15 colon): > 100 µM
GI50 (SR leukemia): 4.47 µM
TGI (SR leukemia): > 100 µM
GI50 (MOLT-4 leukemia): 0.44 µM
TGI (MOLT-4 leukemia): > 100 µM
GI50 (NCI/ADR-RES ovarian): 0.295 µM
TGI (NCI/ADR-RES ovarian): 23.3 µM
GI50 (SNB-75 CNS): 3.57 µM
TGI (SNB-75 CNS): > 39.6 µM
GI50 (IGROV1 ovarian): 0.593 µM
TGI (IGROV1 ovarian): 44.5 µM
GI50 (NCI-H226 lung): 4.14 µM
TGI (NCI-H226 lung): 24.3 µM
GI50 (HOP-62 NSCLC): 0.754 µM
TGI (HOP-62 NSCLC): 26.3 µM
GI50 (OVCAR-3 ovarian): 0.368 µM
TGI (OVCAR-3 ovarian): > 39.4 µM
GI50 (OVCAR-8 ovarian): 0.664 µM
TGI (OVCAR-8 ovarian): 39.7 µM
GI50 (SN12C renal): 2.54 µM
TGI (SN12C renal): > 48.4 µM
GI50 (A498 renal): 6.62 µM
TGI (A498 renal): 39.3 µM
GI50 (KM12 colon): 1.1 µM
TGI (KM12 colon): > 73.4 µM
